Target: T1, ribonuclease A (RNase A) (Bos taurus, UniProt P61823)
T1 sequence (P61823 27-150): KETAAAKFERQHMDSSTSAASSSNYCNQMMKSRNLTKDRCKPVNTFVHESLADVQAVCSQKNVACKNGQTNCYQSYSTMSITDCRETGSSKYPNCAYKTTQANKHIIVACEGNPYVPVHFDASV
Experiment: RNase A labeling (esterification of carboxyl groups), extent by MALDI, labelled residues by trypsin digestion and mass spectrometry
Type: biochemical
Details: for extent of labeling of RNase A (average number of the eleven carboxylates esterified): 10 equivalents of diazo compound; for RNase A residues labelled (chemoselectivity): trypsin digestion coupled with mass spectrometry
Protocol: To address biocompatibility of diazo-compounds for esterification more directly, the relative esterification efficiency of these diazo compounds was compared with the eleven carboxyl groups present in ribonuclease A (RNase A).[24]
Only after the addition of 200 equivalents was any esterification with diazo-acetamide 1 observed which correlates with its lack of selectivity under aqueous conditions (Scheme 2).
Using trypsin digestion coupled with mass spectrometry, it was determined which residues were labelled and the results fit well with the observed chemoselectivity of each diazo compound. […] This provides further evidence that properly tuned diazo compounds can not only attain high levels of labelling, but can also selectively label specific residues.
Ribonuclease A (0.001 g, 0.073 μmol) was dissolved in MES buffer (10 mM, pH=5.5, 0.1 mL) and diazobenzylacetamide (0.0026 g, 14.6 μmol) was dissolved in acetonitrile (0.1 mL). The two solutions were combined and the reaction was allowed to stir 4 hours at 37° C.
Ribonuclease A (0.001 g, 0.073 μmol) was dissolved in MES buffer (10 mM, pH=5.5, 0.1 mL) and a stock solution of diazofluorene in acetonitrile was made (Stock solution: 0.001 g, 7.30 μmol, 1 mL CH3CN). The stock solution of diazo compound (0.1 mL, 0.730 μmol) was added to the ribonuclease solution and the reaction was allowed to stir 4 hours at 37° C. Any remaining diazo compound was then quenched by adding 0.1 M acetic acid (0.1 mL) and the reaction was concentrated and the extent of labeling was determined by MALDI spectroscopy to be ˜3 labels per RNase A.

[1] = 4 hours at 37° C., MES buffer pH 5.5/acetonitrile

| Compound | extent of labeling of RNase A (average number of the eleven carboxylates esterified) [1] | extent of labeling of RNase A (average number of the eleven carboxylates esterified) (4 hours at 37° C., MES buffer pH 5.5/acetonitrile, listed as diazobenzylacetamide) | RNase A residues labelled (chemoselectivity) (200 equiv.) | extent of labeling of RNase A (200 equivalents of diazo compound, 4 hours at 37° C., MES buffer pH 5.5/acetonitrile) | RNase A residues labelled (chemoselectivity) (10 equiv.) |
| --- | --- | --- | --- | --- | --- |
| [N-]=[N+]=C(Cc1ccccc1)C(N)=O [compound 1, Diazobenzylacetamide] | incapable of labelling | no labeling was observed | comparably labelling residues Glu9, Asp14, Glu49, Glu111, and the C-terminal Val124 | < 1 label per RNase A |  |
| [N-]=[N+]=C1c2ccccc2-c2ccccc21 [compound 2, Diazofluorene] | ~3 labels per RNase A |  |  |  | almost exclusively labelling Asp14, Glu49, Glu111, and Asp121 |

Reference: US11091423B2, “Reagents and methods for esterification” (Wisconsin Alumni Research Foundation, priority 2013, dated 2021)
